The values that follow come from patent publication US9562076B2, “Hydrophobic modified pres-derived peptides of hepatitis B virus (HBV) and their use as HBV and HDV entry inhibitors” (priority 2008, dated 2017).

The test system of this experiment is HBV of genotype D. Format: cell-based, hepatitis B virus. The conditions noted are these: for IC90: HepaRG cells, HBV genotype D inoculum, HBsAg, Table 1. As for the experimental part: HepaRG cells were grown in William's E medium supplemented with 10% fetal calf serum (FCS), 100 units/ml penicillin, 100 μg/ml streptomycin, 5 μg/ml insulin and 5×10^−5 M hydrocortisone hemisuccinate (16). Cells were passaged 1/5 every two weeks by trypsination. Two to three weeks before infection cell differentiation was induced by adding 2% DMSO into the maintenance medium. The medium was exchanged every 2-3 days.
As an infectious inoculum, a 50-fold concentrated culture supernatant of HepG2 clone 2.2.15 (23) cells was used, because of an unlimited supply and a constant quality. It was prepared from freshly collected supernatants by precipitating viral particles in the presence of 6% polyethylene glycol (PEG) 8000. The pellet was resuspended in phosphate buffered saline (PBS) containing 25% FCS. Aliquots were stored at −80° C. Differentiated HepaRG cells or PHH were incubated with the concentrated infectious source, 10-fold diluted in culture medium supplemented with 4% PEG 8000 (Sigma), for 20 h at 37° C. At the end of the incubation, cells were washed three times with the culture medium and maintained in the presence of 2% DMSO and 5×10^−5 M hydrocortisone hemisuccinate and harvested at indicated times.
Competition experiments were performed in 12-well plates. Approximately 1×10^6 cells were first pre-incubated for 30 min with chemically synthesized HBV derived peptides followed by a co-incubation of cells with peptide and virus for 20 h. All competition series were performed at least twice and the results of one representative experiment are shown in each case (see FIGS. 3 to 7).
HepaRG cells were infected either in absence (0 nM) or in the presence of • 1, 5, 25, 100 and 2000 nM of • HBVpreS/2-48^myr(D), • HBVpreS/2-48^myr(C), • HBVpreS/(−11)-48^myr(C), • HBVpreS/2-48^stearoyl(C) and • HBVpreS/(−11)-48^stearoyl(C); or • 0.125; 0.25; 0.5; 0.75 and 1 nM of • HBVpreS/2-48^myr(consensus), • HBVpreS/2-48^stearoyl(consensus), • 1, 5, 25, 100 and 1000 nM of • HBVpreS/2-48^stearoyl(D), • HBVpreS/2-15^stearoyl(D), • HBVpreS/2-21^stearoyl(D), • HBVpreS/2-26^stearoyl(D) and • HBVpreS/2-33^stearoyl(D); or • 1, 5, 25, 100 and 1000 nM of • HBVpreS/2-48^stearoyl(D), • HBVpreS/2-33^stearoyl(D), • HBVpreS/5-33^stearoyl(D), • HBVpreS/5-48^stearoyl(D), • HBVpreS/9-33^stearoyl(D) and • HBVpreS/9-48^stearoyl(D); or • 1, 5, 25, 100 and 1000 nM of • HBVpreS/2-48^stearoyl(D), • HBVpreS/2-48^stearoyl(D-AS^11-15)(D), • HBVpreS/2-48^stearoyl(Ala^11-15)(D), • HBVpreS/2-48^stearoyl(Δ17-21)(D), • HBVpreS/2-48^stearoyl(Ala^17-21)(D); or • 1, 5, 25, 100 and 1000 nM of • HBVpreS/2-48^stearoyl(retroinverso)(D) and • HBVpreS/2-48^stearoyl(Ala^21,23,29,30)(D); or • 1, 5, 25, 100 and 1000 nM of • HBVpreS/2-48^stearoyl(Ala^18)(D), • HBVpreS/2-48^stearoyl(Δ11-15)(D), • HBVpreS/2-48^stearoyl(Ser^13)(D), • HBVpreS/2-48^stearoyl(Arg^11)(D).; or • 50, 100, 150, 250 and 1000 pM […] of • HBVpreS/2-48^myr(C) and • HBVpreS/2-48^stearoyl(C), wherein (C) refers to HBV genotype C Q46K.
The infectious inoculum (HBV of genotype D) and the peptides were incubated overnight. After washing, cells were maintained for another 12 days to allow viral gene expression. Cell culture supernatants from day 8-12 were collected and analyzed for secreted HBSAg using a quantitative commercially available ELISA. HBsAg values from the respective uncompleted infection were set to 100% and the degree of infection inhibition is given in % of the uncompleted infection.

Ends that are not written are not given here.

The IC50 is the concentration that inhibits the measured activity by half. Higher therefore signals a need for much substance. Regarding `CCCCCCCCCCCCCCCCCC(=O)NCC(=O)N[C@@H](CCC(N)=O)C(=O)N[C@@H](CC(N)=O)C(=O)N[C@@H](CC(C)C)C(=O)N[C@@H](CO)C(=O)N[C@H](C(=O)N[C@@H](CO)C(=O)N[C@@H](CC(N)=O)C(=O)N1CCC[C@H]1C(=O)N[C@@H](CC(C)C)C(=O)NCC(=O)N[C@@H](Cc1ccccc1)C(=O)N[C@@H](Cc1ccccc1)C(=O)N1CCC[C@H]1C(=O)N[C@@H](CC(=O)O)C(=O)N[C@@H](Cc1c[nH]cn1)C(=O)N[C@@H](CCC(N)=O)C(=O)N[C@@H](CC(C)C)C(=O)N[C@@H](CC(=O)O)C(=O)N1CCC[C@H]1C(=O)O)[C@@H](C)O` [HBVpreS/2-21^stearoyl], the IC50 (of genotype D) is ~8 nM.

With “HBVpreS/2-21^stearoyl(C): stearoylated residues 2 to 21 of genotype C, SEQ ID NO. 13 (GTNLSVPNPLGFFPDHQLDP; not fully specified (N-terminus); also: stearoyl)”, the “inhibition of the entry of HBV genotype D by a genotype C derived peptide (cross prevention)” value is “can inhibit the entry of HBV genotype D”.

By IC90 is commonly meant the concentration needed for an effect of 90%. A lower IC90 goes with an effect from little substance. For HBVpreS/2-48^myr(C), the “inhibition of the entry of HBV genotype D by a genotype C derived peptide (cross prevention)” value is listed as “can inhibit the entry of HBV genotype D” and the IC90 was ~5 nM.

For the molecule HBVpreS/2-48^stearoyl(C), the IC90 was ~1 nM.

Turning to “HBVpreS/2-48^stearoyl(D): stearoylated residues 2 to 48 of genotype D, SEQ ID NO. 16”, the concentration for an effect of 90% (IC90) was ~3 nM.
